PMC10353187, “Discovery of a new potent oxindole multi-kinase inhibitor among a series of designed 3-alkenyl-oxindoles with ancillary carbonic anhydrase inhibitory activity as antiproliferative agents” (BMC Chemistry, 2023)

Assays:
Assay in all cases: Z'-LYTE kinase inhibition assay (SelectScreen)
Type in all cases: biochemical
PDGFRA (PDGFR alpha) = target: T1, PDGFRA (PDGFR alpha) (Homo sapiens, UniProt P16234)
T1 construct: purchased Thermo Fischer Scientific (SelectScreen service)
Protocol: (§1) To test the potential kinase inhibitory activity of compound 15c, initial single dose testing was performed at 10 μM on a panel of kinases and their inhibition % were determined.
(§2) The FGFR, VEGFR-2 and RET tyrosine kinase assays were carried out at Thermo Fischer Scientific, USA (www.thermofischer.com/selectscreen). (For further details see Additional file 1; S3: In vitro biological activity).
(§3) The FGFR, VEGFR-2 and RET tyrosine kinase assays were performed at Thermo Fischer Scientific, USA (www.thermofischer.com/selectscreen). The assay was performed to evaluate the inhibitory activity of the designed compound applying the Z'-LYTE biochemical assay employing a fluorescence-based, coupled-enzyme format based on the differential sensitivity of phosphorylate and non-phosphorylate peptides to the proteolytic cleavage. The peptide substrate is characterized with two fluorophores, one at each end, that make up a FRET pair ^9.
(§4) The Z´-LYTE biochemical assay employs a fluorescence-based, coupled-enzyme format and is based on the differential sensitivity of phosphorylated and non-phosphorylated peptides to proteolytic cleavage. The peptide substrate is labeled with two fluorophores—one at each end—that make up a FRET pair. In the primary reaction, the kinase transfers the gamma-phosphate of ATP to a single tyrosine, serine or threonine residue in a synthetic FRET-peptide. In the secondary reaction, a site-specific protease recognizes and cleaves non-phosphorylated FRET-peptides. Phosphorylation of FRET-peptides suppresses cleavage by the Development Reagent. Cleavage disrupts FRET between the donor (i.e., coumarin) and acceptor (i.e., fluorescein) fluorophores on the FRET-peptide, whereas uncleaved, phosphorylated FRET-peptides maintain FRET. A ratiometric method, which calculates the ratio (the Emission Ratio) of donor emission to acceptor emission after excitation of the donor fluorophore at 400 nm, is used to quantitate reaction progress, as shown in the equation below. A significant benefit of this ratiometric method for quantitating reaction progress is the elimination of wellto-well variations in FRET-peptide concentration and signal intensities. […]. Both cleaved and uncleaved FRET-peptides contribute to the fluorescence signals and therefore to the Emission Ratio. The extent of phosphorylation of the FRET-peptide can be calculated from the Emission Ratio. The Emission Ratio will remain low if the FRET-peptide is phosphorylated (i.e., no kinase inhibition) and will be high if the FRET-peptide is non-phosphorylated (i.e., kinase inhibition).
(§5) Test Compounds the Test Compounds are screened in 1% DMSO (final) in the well. For 10 point titrations, 3-fold serial dilutions are conducted from the starting concentration of the customer’s choosing. Peptide/Kinase Mixtures All Peptide/Kinase Mixtures are diluted to a 2X working concentration in the appropriate Kinase Buffer (see section Kinase Specific Assay Conditions for a complete description). ATP Solution All ATP Solutions are diluted to a 4X working concentration in Kinase Buffer (50 mM HEPES pH 7.5, 0.01% BRIJ-35, 10 mM MgCl2, 1 mM EGTA). ATP Km apparent is previously determined using a Z´-LYTE assay.

c-Met = target: T2, c-Met (Homo sapiens, UniProt P08581)
T2 construct: purchased Thermo Fischer Scientific (SelectScreen service)
T2 sequence (P08581 25-1390): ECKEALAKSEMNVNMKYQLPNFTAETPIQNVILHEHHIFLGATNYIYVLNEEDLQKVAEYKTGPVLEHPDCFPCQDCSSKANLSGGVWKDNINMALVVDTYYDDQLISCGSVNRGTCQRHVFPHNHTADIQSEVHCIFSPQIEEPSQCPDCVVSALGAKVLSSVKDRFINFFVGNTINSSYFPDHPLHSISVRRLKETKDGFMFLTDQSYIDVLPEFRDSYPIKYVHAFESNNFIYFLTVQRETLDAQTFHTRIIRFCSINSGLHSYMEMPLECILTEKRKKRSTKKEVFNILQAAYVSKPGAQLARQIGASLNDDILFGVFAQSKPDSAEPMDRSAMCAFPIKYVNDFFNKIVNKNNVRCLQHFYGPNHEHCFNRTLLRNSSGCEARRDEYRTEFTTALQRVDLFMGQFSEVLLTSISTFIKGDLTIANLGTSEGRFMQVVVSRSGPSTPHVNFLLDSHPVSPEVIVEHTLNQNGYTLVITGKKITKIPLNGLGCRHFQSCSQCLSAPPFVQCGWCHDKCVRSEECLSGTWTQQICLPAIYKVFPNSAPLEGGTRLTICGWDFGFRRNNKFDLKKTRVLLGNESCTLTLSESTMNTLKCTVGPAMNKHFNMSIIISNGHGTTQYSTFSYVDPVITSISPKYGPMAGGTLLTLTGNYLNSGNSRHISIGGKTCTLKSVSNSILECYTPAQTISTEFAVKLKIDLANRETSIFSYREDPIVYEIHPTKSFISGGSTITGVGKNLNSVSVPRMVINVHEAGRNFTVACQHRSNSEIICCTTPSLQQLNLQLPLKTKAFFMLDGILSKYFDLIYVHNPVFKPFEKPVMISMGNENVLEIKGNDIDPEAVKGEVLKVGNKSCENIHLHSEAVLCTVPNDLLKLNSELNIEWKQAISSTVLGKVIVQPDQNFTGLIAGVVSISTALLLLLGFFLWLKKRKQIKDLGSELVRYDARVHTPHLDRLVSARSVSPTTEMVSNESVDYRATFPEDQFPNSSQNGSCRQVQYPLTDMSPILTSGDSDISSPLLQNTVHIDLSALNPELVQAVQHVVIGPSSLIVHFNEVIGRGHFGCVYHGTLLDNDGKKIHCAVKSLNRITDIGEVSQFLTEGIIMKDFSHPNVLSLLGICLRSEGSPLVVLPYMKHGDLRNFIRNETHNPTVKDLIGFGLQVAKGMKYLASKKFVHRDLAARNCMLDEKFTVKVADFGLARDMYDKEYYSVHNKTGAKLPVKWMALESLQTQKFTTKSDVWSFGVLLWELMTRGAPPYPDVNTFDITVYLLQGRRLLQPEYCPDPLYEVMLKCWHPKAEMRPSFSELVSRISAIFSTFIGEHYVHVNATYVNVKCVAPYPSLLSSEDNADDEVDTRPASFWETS
Protocol: as §1, §2, §3, §4, §5

BRAF = target: T3, BRAF (Homo sapiens, UniProt P15056)
T3 construct: purchased Thermo Fischer Scientific (SelectScreen service)
Protocol: as §1, §2, §3, §4, §5

VEGFR 1(FLT1) = target: T4, VEGFR 1(FLT1) (Homo sapiens, UniProt P17948)
T4 construct: purchased Thermo Fischer Scientific (SelectScreen service)
Protocol: as §1, §2, §3, §4, §5

Kit = target: T5, Kit (Homo sapiens, UniProt P10721)
T5 construct: purchased Thermo Fischer Scientific (SelectScreen service)
Protocol: as §1, §2, §3, §4, §5

FGFR 1 = target: T6, FGFR 1 (Homo sapiens, UniProt P11362)
T6 construct: purchased Thermo Fischer Scientific (SelectScreen service)
T6 sequence (P11362 22-822): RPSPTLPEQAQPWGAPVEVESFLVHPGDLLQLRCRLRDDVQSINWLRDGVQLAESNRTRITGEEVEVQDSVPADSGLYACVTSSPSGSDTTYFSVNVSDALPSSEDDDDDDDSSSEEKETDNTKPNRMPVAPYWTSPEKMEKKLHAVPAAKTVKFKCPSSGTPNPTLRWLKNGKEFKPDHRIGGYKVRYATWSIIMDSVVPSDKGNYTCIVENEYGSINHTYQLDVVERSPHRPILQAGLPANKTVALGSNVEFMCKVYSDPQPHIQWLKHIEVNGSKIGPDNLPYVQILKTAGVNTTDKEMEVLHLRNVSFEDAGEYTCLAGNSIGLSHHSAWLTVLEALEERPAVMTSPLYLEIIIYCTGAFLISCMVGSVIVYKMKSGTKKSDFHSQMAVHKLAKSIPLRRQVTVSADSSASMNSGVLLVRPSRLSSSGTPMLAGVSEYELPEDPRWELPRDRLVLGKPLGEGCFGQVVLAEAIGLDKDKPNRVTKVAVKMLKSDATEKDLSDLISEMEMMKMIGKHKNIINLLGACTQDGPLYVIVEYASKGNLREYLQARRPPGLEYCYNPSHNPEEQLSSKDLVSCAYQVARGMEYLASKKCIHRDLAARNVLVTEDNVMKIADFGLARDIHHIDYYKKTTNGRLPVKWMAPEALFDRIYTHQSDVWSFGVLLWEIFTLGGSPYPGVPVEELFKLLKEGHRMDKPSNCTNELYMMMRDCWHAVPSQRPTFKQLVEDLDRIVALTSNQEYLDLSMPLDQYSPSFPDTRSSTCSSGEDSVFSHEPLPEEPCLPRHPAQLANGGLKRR
Protocol: as §1
(§6) […]. Additional file 1; S3: In vitro biological activity).
as §2, §3, §4, §5

VEGFR 2(KDR) = target: T7, VEGFR 2(KDR) (Homo sapiens, UniProt P35968)
T7 construct: purchased Thermo Fischer Scientific (SelectScreen service)
T7 sequence (P35968 20-1356): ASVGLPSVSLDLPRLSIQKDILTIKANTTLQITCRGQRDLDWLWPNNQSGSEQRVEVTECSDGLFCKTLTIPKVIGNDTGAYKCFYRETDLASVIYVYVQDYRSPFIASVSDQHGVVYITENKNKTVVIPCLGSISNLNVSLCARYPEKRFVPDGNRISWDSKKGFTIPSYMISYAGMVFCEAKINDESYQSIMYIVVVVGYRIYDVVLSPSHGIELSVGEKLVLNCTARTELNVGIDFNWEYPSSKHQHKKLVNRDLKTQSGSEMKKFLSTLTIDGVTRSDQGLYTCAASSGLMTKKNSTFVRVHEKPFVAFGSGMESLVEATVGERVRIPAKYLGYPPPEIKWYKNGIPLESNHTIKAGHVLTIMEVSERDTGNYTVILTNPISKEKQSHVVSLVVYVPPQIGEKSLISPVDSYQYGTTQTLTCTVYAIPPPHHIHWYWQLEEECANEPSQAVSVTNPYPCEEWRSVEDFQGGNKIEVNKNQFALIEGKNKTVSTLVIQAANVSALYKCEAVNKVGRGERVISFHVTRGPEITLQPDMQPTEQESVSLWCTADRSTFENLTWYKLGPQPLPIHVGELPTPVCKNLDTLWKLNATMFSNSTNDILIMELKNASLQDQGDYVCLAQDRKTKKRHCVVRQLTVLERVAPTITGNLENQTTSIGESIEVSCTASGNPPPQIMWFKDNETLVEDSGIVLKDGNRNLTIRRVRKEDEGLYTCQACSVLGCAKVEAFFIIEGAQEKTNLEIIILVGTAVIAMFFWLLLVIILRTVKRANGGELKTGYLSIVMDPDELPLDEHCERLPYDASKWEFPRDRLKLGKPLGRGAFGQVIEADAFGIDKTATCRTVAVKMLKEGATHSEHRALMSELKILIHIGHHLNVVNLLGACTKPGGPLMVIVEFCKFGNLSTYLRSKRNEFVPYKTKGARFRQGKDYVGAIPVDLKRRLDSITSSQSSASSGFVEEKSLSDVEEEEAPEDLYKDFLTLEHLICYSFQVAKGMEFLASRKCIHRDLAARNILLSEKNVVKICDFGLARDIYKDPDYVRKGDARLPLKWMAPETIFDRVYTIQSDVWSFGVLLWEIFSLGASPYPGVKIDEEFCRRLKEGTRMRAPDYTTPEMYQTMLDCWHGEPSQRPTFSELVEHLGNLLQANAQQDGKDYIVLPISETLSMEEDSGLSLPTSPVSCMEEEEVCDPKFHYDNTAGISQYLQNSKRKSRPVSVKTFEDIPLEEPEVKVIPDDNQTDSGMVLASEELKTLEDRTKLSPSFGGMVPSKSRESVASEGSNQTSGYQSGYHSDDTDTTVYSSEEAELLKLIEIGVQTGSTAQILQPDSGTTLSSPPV
Protocol: as §1, §6, §2, §3, §4, §5

RET = target: T8, RET (Homo sapiens, UniProt P07949)
T8 construct: purchased Thermo Fischer Scientific (SelectScreen service)
T8 sequence (P07949 29-1114): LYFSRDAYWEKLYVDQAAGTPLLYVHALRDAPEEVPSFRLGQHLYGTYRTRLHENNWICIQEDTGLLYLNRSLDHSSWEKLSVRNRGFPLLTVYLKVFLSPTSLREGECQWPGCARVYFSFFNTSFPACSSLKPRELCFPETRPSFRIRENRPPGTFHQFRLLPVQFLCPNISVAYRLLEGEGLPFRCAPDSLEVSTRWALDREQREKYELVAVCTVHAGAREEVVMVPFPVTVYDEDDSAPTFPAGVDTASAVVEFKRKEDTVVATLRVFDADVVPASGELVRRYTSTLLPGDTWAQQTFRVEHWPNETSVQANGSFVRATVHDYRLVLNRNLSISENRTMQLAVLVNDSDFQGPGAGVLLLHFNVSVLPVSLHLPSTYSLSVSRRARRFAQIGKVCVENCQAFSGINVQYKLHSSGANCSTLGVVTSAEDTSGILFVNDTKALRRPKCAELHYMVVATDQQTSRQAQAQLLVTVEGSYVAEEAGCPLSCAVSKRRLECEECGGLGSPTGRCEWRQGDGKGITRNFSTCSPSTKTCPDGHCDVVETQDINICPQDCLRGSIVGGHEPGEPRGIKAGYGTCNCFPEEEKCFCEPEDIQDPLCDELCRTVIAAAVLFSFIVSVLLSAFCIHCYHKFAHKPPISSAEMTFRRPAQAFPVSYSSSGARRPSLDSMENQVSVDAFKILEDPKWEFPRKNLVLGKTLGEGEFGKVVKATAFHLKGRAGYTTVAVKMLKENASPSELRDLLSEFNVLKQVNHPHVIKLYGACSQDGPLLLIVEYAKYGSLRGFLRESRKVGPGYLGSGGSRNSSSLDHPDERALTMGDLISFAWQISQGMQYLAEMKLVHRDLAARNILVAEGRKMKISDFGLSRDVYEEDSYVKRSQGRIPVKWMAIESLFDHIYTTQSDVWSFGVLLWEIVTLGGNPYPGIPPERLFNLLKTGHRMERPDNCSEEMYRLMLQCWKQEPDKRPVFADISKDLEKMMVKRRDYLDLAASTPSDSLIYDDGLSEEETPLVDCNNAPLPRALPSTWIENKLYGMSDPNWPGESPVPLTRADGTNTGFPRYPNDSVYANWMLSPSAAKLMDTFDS
Protocol: as §1, §6, §2, §3, §4, §5

[1] = five concentrations 10 nM–100 μM

O=C(Nc1ccc(NC=C2C(=O)Nc3ccccc32)cc1)Nc1nccs1 [Compound 15c, 1-{4-[((2-Oxoindolin-3-ylidene)methyl)amino]phenyl}-3-(thiazol-2-yl)urea]
inhibition at 10 µM (PDGFRA (PDGFR alpha)): 59% | inhibition at 10 µM (c-Met): 62% | inhibition at 10 µM (BRAF): 69% | inhibition at 10 µM (VEGFR 1(FLT1)): 40% | inhibition at 10 µM (Kit): 31% | inhibition at 10 µM (FGFR 1; 10 uM): 74% | IC50 (FGFR 1; [1]): 1.29 µM | inhibition at 10 µM (VEGFR 2(KDR); 10 uM): 73% | IC50 (VEGFR 2(KDR); [1]): 0.117 µM | inhibition at 10 µM (RET; 10 uM): 74% | IC50 (RET; [1]): 1.19 µM
